Test [1] deals with T1, Serine/threonine-protein phosphatase 2A catalytic subunit alpha isoform (Bos taurus, UniProt P67774). Put plainly: Inhibitory concentration against protein phosphatase 2A (PP2A) using pNPP assay. Details: species or system Oryctolagus cuniculus.
Test [2] addresses T1, Serine/threonine-protein phosphatase 2A catalytic subunit alpha isoform. As to the kind of experiment: Inhibitory concentration against protein phosphatase 2A (PP2A) using phosphorylase-a assay. Details: species or system Oryctolagus cuniculus.
The species named for another test is Oryctolagus cuniculus. As to the kind of experiment: Ratio of inhibition of PP1 to that of inhibition of PP2A using phosphorylase-a assay.

*1 amine or outer side, *2 acyl side, *3 side chain or, on linkers, in order; H or OH if unused. Where a SMILES comes first, the peptide text is derived from it. Bridges are numbered along the chain shown (N, C = ends). [ ]: non-standard residue; d: D form. Adda = CO[C@@H](Cc1ccccc1)[C@@H](C)/C=C(C)/C=C/[C@H](N[*:1])[C@H](C)C(=O)[*:2]; dAsp(3S-Me) = C[C@H](C(=O)[*:3])[C@@H](N[*:1])C(=O)[*:2]; d(γGlu) = O=C(O)[C@@H](CCC(=O)[*:2])N[*:1]; NMeDha = C=C(NC)C(=O)O

The values that follow come from ChEMBL document CHEMBL1136186, “Microcystin analogues comprised only of Adda and a single additional amino acid retain moderate activity as PP1/PP2A inhibitors” (Bioorg Med Chem Lett, 2003).

T1 sequence (P67774 whole entry, canonical isoform): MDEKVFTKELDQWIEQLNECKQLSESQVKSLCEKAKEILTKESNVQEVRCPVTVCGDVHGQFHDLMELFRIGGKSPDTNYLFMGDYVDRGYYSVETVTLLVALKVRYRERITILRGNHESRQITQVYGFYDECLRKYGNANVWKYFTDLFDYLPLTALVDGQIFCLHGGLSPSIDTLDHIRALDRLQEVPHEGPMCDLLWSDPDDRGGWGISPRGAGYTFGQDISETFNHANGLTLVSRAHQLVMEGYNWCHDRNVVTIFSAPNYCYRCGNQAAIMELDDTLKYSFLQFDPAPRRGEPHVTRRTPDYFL

With `C=C1C(=O)N[C@H](C)C(=O)N[C@@H](CC(C)C)C(=O)N[C@@H](C(=O)O)[C@H](C)C(=O)N[C@@H](C)C(=O)N[C@@H](/C=C/C(C)=C/[C@H](C)[C@H](Cc2ccccc2)OC)[C@H](C)C(=O)N[C@@H](C(=O)O)CCC(=O)N1C` (A[Adda][d(γGlu)][NMeDha][dA]L[dAsp(3S-Me)]-OH; lactam N-7), the IC50 was 0.003 µM in test [1] and 0.0003 µM in test [2]. In addition, the Ratio in the test listed under Oryctolagus cuniculus is 1.
On to `CO[C@@H](Cc1ccccc1)[C@@H](C)/C=C(C)/C=C/[C@H](NC(C)=O)[C@H](C)C(=O)N[C@@H](C)C(=O)O`, for which half-maximal inhibition in test [2] (IC50) was put at 7.8 µM. In the test listed under Oryctolagus cuniculus, the Ratio was determined as 1.22.
In turn, `CO[C@@H](Cc1ccccc1)[C@@H](C)/C=C(C)/C=C/[C@H](NC(C)=O)[C@H](C)C(=O)N1C[C@@H](C(=O)O)C[C@@H]1C(=O)O` displayed an IC50 in test [1] greater than 100 µM.
Compound `CC(=O)N[C@@H](/C=C/C(C)=C/c1ccc(-c2ccccc2)cc1)[C@H](C)C(=O)N[C@H](C)C(=O)O` registered an IC50 in test [1] greater than 100 µM.
As to `CO[C@@H](Cc1ccccc1)[C@@H](C)/C=C(C)/C=C/[C@H](NC(C)=O)[C@H](C)C(=O)N1[C@H](C(=O)O)CC[C@H]1C(=O)O`, the IC50 in test [1] was greater than 39 µM. For the same compound, the Ratio in the test listed under Oryctolagus cuniculus is greater than 1.3.
As to `CO[C@@H](Cc1ccccc1)[C@@H](C)/C=C(C)/C=C/[C@H](NC(C)=O)[C@H](C)C(=O)N1C[C@H](O[Si](C(C)C)(C(C)C)C(C)C)C[C@@H]1C(=O)O`, the IC50 in test [1] was greater than 63 µM. Also, the Ratio in the test filed under Oryctolagus cuniculus was greater than 2.
`CO[C@@H](Cc1ccccc1)[C@@H](C)/C=C(C)/C=C/[C@H](NC(C)=O)[C@H](C)C(=O)N(CC(=O)O)CC(=O)O` returned an IC50 in test [1] greater than 100 µM.
As to `CO[C@@H](Cc1ccccc1)[C@@H](C)/C=C(C)/C=C/[C@H](NC(C)=O)[C@H](C)C(=O)N[C@H](C)C(=O)O`, the IC50 in test [1] amounted to 7 µM; in test [2], 0.16 µM. In addition, the Ratio in the test listed under Oryctolagus cuniculus worked out at 6.
The compound `CO[C@@H](Cc1ccccc1)[C@@H](C)/C=C(C)/C=C/[C@H](NC(C)=O)[C@H](C)C(=O)N1CCC[C@@H]1C(=O)O` displayed an IC50 in test [1] greater than 25 µM. The Ratio in the test listed under Oryctolagus cuniculus came out at 2.
For `CO[C@@H](Cc1ccccc1)[C@@H](C)/C=C(C)/C=C/[C@H](NC(C)=O)[C@H](C)C(=O)N1[C@@H](C(=O)O)CC[C@H]1C(=O)O` the same measures were 10 µM and greater than 5.
Turning to `COC(=O)[C@@H]1CCCN1C(=O)[C@@H](C)[C@H](/C=C/C(C)=C/[C@H](C)[C@H](Cc1ccccc1)OC)NC(C)=O`, the IC50 in test [1] is greater than 100 µM.
Same read-out and setting: next, `CC(=O)N[C@@H](/C=C/C(C)=C/CCCc1ccccc1)[C@H](C)C(=O)N[C@H](C)C(=O)O`: greater than 100 µM.
Still for that read-out and setting: next, `CO[C@@H](Cc1ccccc1)[C@@H](C)/C=C(C)/C=C/[C@H](NC(C)=O)[C@H](C)C(=O)N1C[C@H](C(=O)O)C[C@H]1C(=O)O`: greater than 100 µM.
`COC(=O)[C@H]1CCCN1C(=O)[C@@H](C)[C@H](/C=C/C(C)=C/[C@H](C)[C@H](Cc1ccccc1)OC)NC(C)=O` displayed an IC50 in test [1] greater than 100 µM.
Same read-out and setting: next, `CO[C@@H](Cc1ccccc1)[C@@H](C)/C=C(C)/C=C/[C@H](NC(C)=O)[C@H](C)C(=O)N1CCC[C@H]1C(=O)O`: greater than 100 µM; `CO[C@@H](Cc1ccccc1)[C@@H](C)/C=C(C)/C=C/[C@H](NC(C)=O)[C@H](C)C(=O)N1C[C@H](C(=O)O)C[C@@H]1C(=O)O`: greater than 100 µM; `CO[C@@H](Cc1ccccc1)[C@@H](C)/C=C(C)/C=C/[C@H](NC(C)=O)[C@H](C)C(=O)N1CCCC1`: greater than 100 µM.
`CO[C@@H](Cc1ccccc1)[C@@H](C)/C=C(C)/C=C/[C@H](NC(C)=O)[C@H](C)C(=O)NCC(=O)O` showed a half-inhibitory concentration (IC50) in test [2] of 0.5 µM. The Ratio in the test listed under Oryctolagus cuniculus was determined as 1.11.
In test [1], `CC(=O)N[C@@H](/C=C/C(C)=C/c1ccccc1Cc1ccccc1)[C@H](C)C(=O)N[C@H](C)C(=O)O` had an IC50 greater than 100 µM.

Usually IC50 stands for the concentration needed to halve the response being measured. Read a high IC50 as weaker potency in that assay.
